Source: ChEMBL document CHEMBL5036357, “2,3-Difunctionalized Benzo[b]thiophene Scaffolds Possessing Potent Antiangiogenic Properties” (J Med Chem, 2022)
Activity calls are given as the source filed them. The rule behind the calls is not given here.

How the values were obtained:
[1] = test system: HUVEC; experiment: Anti-angiogenesis activity against HUVEC cells assessed as tubule formation at 10 uM incubated for 6 hrs by inverted fluorescence microscopic analysis relative to control; type: functional, Homo sapiens
[2] = test system: HUVEC; experiment: Anti-angiogenesis activity against HUVEC cells assessed as tubule formation at 250 nM incubated for 6 hrs by inverted fluorescence microscopic analysis relative to control; type: functional, Homo sapiens
[3] = test system: HUVEC; experiment: Inhibition of tube formation in HUVEC measured up to 12 hrs by calcein-AM staining based fluorescence microscopic analysis; type: functional, cell-based; conditions: Homo sapiens, dose 250-10000 nM, time hrs <=12
[4] = test system: HUVEC; experiment: Inhibition of tube formation in HUVEC at 50 to 100 nM measured up to 12 hrs by calcein-AM staining based fluorescence microscopic analysis; type: functional, cell-based; conditions: Homo sapiens, dose 50-100 nM, time hrs <=12
[5] = test system: HUVEC; experiment: Antiangiogenic activity against VEGF-stimulated HUVEC cells assessed as reduction in endothelial sprouting tubules incubated for 3 days by Cytodex-3 beads based inverted microscopic analysis; type: functional, cell-based; conditions: Homo sapiens, dose 250-1000 nM, time 3.0 day
[6] = test system: HUVEC; experiment: Antiangiogenic activity against HUVEC cells assessed as inhibition of cell migration measured after 12 hrs by scratch wound closure assay relative to control; type: functional, Homo sapiens
[7] = test system: HUVEC; experiment: Antiangiogenic activity against HUVEC cells assessed as inhibition of cell migration measured after 24 hrs by scratch wound closure assay; type: functional, cell-based; conditions: Homo sapiens
[8] = test system: HUVEC; experiment: Cytotoxicity against HUVEC assessed as reduction in cell proliferation at 250 nM measured after 24 hrs by MTT assay; type: cell-based; conditions: human, 0.25 µM
[9] = test system: HUVEC; experiment: Effect on cell cycle distribution in HUVEC cells assessed as accumulation of cells in G2 phase at 250 nM measured after 24 hrs by propidium iodide staining based flow cytometry analysis (Rvb= 1.67%); type: functional, Homo sapiens
[10] = organism: Mus musculus; experiment: Antiangiogenic activity in BALB/c mouse assessed as reduction in neovascularization by measuring reduction in hemoglobin concentration at 250 nM by matrigel plug assay; type: functional, organism-based
[11] = organism: Mus musculus; experiment: Antiangiogenic activity in BALB/c mouse assessed as assessed as reduction in CD31-positive microvessel density in ear tissue at 250 nM measured after 6 days by fluorescence microscopic analysis; type: functional, organism-based; conditions: time 6.0 day
[12] = test system: HUVEC; experiment: Downregulation of p-Akt expression in HUVEC cells at 250 nM measured after 6 hrs by Western blot analysis; type: functional, cell-based; conditions: Homo sapiens
[13] = test system: HUVEC; experiment: Downregulation of p-Src expression in HUVEC cells at 250 nM measured after 6 hrs by Western blot analysis; type: functional, cell-based; conditions: Homo sapiens
[14] = test system: HUVEC; experiment: Downregulation of ICAM-1 expression in HUVEC cells at 250 nM measured after 6 hrs by Western blot analysis; type: functional, cell-based; conditions: Homo sapiens
[15] = test system: HUVEC; experiment: Induction of F-actin depolymerization in HUVEC assessed as loss of F-actin continuity at 250 nM incubated for 6 hrs by phalloidin staining based confocal microscopic analysis; type: tissue-based; conditions: Homo sapiens
[16] = molecular target: T1, Tubulin (Homo sapiens) (UniProt P68371+Q9H4B7+P0DPH7+P68366+Q13509+Q71U36+P04350+Q3ZCM7+P07437+P68363+Q9BQE3+Q6PEY2+Q13885+Q9BVA1+Q9BUF5); experiment: Induction of microtubule depolymerization in HUVEC assessed as assessed as microtubule network abnormalities at 250 nM incubated for 6 hrs by […] based confocal microscopic analysis; type: tissue-based
[17] = test system: HUVEC; experiment: Induction of F-actin depolymerization in HUVEC assessed as loss of endothelial cell morphology at 250 nM incubated for 6 hrs by phalloidin staining based confocal microscopic analysis; conditions: Homo sapiens
[18] = molecular target: T1, Tubulin (Homo sapiens); experiment: Induction of microtubule depolymerization in HUVEC assessed as assessed as loss of endothelial cell morphology at 250 nM incubated for 6 hrs by […] based confocal microscopic analysis
[19] = test system: HUVEC; experiment: Induction of F-actin depolymerization in HUVEC assessed as plasma membrane blebbing at 250 nM incubated for 6 hrs by phalloidin staining based confocal microscopic analysis; type: cell membranes; conditions: Homo sapiens
[20] = molecular target: T1, Tubulin (Homo sapiens); experiment: Induction of microtubule depolymerization in HUVEC assessed as assessed as plasma membrane blebbing at 250 nM incubated for 6 hrs by […] based confocal microscopic analysis; type: cell membranes
[21] = Stability in simulated gastric fluid at pH 1.2 assessed as parent compound remaining after 2 hrs; type: ADME; conditions: read-out: Stability
[22] = Stability in simulated intestinal fluid at pH 6.8 assessed as parent compound remaining after 2 hrs; type: ADME; conditions: read-out: Stability
[23] = Stability in rat plasma assessed as compound remaining measured up to 2 hrs; type: ADME, cell-free; conditions: read-out: Stability
[24] = Metabolic stability in rat liver microsomes assessed as half life; type: ADME, Microsome
[25] = Metabolic stability in rat liver microsomes assessed as dissociation rate constant; type: ADME, Microsome
[26] = Intrinsic clearance in rat liver microsomes; type: ADME, Microsome
[27] = Stability in culture media assessed as compound remaining at 250 to 500 nM measured up to 24 hrs; type: physicochemical; conditions: dose 250-500 nM, read-out: Stability
[28] = Cmax in Sprague-Dawley rat at 25 mg/kg, IM measured up to 48 hrs; type: ADME, organism-based; design: route intramuscular, dose 25 mg/kg, time <=48; conditions: in vivo
[29] = Tmax in Sprague-Dawley rat at 25 mg/kg, IM measured up to 48 hrs; type: ADME, organism-based; conditions: in vivo
[30] = Apparent volume of distribution in Sprague-Dawley rat at 25 mg/kg, IM measured up to 48 hrs; type: ADME, organism-based; conditions: in vivo
[31] = Clearance in Sprague-Dawley rat at 25 mg/kg, IM measured up to 48 hrs; type: ADME, organism-based; conditions: in vivo
[32] = Half life in Sprague-Dawley rat at 25 mg/kg, IM measured up to 48 hrs; type: ADME, organism-based; conditions: in vivo
[33] = Elimination rate constant in Sprague-Dawley rat at 25 mg/kg, IM measured up to 48 hrs; type: ADME, organism-based; conditions: in vivo
[34] = test system: HUVEC; experiment: Vascular disruptive effect in HUVEC cells assessed as reduction in tube formation at 250 nM measured after 3 to 24 hrs by calcein-AM staining based fluorescence microscopic analysis; type: functional, cell-based; conditions: Homo sapiens, time 3-24 hrs
[35] = test system: MDA-MB-468; experiment: Antitumor activity against human MDA-MB-468 cells xenografted in CD-1 mouse assessed as reduction in tumor size at 30 mg/kg, iv administered once daily for 21 days; type: functional, organism-based; conditions: time 21.0 day
[36] = molecular target: Vascular endothelial growth factor receptor 2 (Homo sapiens) (UniProt P35968); experiment: Inhibition of VEGFR2 phosphorylation in VEGF-induced HUVEC cells pretreated at 0.5 to 20 uM by Western blot analysis; type: cell-based; conditions: dose 0.5-20 µM
[37] = test system: HUVEC; experiment: Anti-angiogenesis activity against HUVEC cells assessed as reduction in tubule formation at 50 nM incubated for 6 hrs by inverted fluorescence microscopic analysis relative to control; type: functional, Homo sapiens; design: scale not given: the % may be the effect or the level left
[38] = organism: Mus musculus; experiment: Antiangiogenic activity in BALB/c mouse assessed as reduction in neovascularization by measuring reduction in hemoglobin concentration at 2 uM by matrigel plug assay; type: functional, organism-based
[39] = organism: Mus musculus; experiment: Antiangiogenic activity in BALB/c mouse assessed as assessed as reduction in CD31-positive microvessel density in ear tissue at 2 uM measured after 6 days by fluorescence microscopic analysis; type: functional, organism-based; conditions: time 6.0 day

Sequence of Vascular endothelial growth factor receptor 2 (Homo sapiens) (P35968 whole entry): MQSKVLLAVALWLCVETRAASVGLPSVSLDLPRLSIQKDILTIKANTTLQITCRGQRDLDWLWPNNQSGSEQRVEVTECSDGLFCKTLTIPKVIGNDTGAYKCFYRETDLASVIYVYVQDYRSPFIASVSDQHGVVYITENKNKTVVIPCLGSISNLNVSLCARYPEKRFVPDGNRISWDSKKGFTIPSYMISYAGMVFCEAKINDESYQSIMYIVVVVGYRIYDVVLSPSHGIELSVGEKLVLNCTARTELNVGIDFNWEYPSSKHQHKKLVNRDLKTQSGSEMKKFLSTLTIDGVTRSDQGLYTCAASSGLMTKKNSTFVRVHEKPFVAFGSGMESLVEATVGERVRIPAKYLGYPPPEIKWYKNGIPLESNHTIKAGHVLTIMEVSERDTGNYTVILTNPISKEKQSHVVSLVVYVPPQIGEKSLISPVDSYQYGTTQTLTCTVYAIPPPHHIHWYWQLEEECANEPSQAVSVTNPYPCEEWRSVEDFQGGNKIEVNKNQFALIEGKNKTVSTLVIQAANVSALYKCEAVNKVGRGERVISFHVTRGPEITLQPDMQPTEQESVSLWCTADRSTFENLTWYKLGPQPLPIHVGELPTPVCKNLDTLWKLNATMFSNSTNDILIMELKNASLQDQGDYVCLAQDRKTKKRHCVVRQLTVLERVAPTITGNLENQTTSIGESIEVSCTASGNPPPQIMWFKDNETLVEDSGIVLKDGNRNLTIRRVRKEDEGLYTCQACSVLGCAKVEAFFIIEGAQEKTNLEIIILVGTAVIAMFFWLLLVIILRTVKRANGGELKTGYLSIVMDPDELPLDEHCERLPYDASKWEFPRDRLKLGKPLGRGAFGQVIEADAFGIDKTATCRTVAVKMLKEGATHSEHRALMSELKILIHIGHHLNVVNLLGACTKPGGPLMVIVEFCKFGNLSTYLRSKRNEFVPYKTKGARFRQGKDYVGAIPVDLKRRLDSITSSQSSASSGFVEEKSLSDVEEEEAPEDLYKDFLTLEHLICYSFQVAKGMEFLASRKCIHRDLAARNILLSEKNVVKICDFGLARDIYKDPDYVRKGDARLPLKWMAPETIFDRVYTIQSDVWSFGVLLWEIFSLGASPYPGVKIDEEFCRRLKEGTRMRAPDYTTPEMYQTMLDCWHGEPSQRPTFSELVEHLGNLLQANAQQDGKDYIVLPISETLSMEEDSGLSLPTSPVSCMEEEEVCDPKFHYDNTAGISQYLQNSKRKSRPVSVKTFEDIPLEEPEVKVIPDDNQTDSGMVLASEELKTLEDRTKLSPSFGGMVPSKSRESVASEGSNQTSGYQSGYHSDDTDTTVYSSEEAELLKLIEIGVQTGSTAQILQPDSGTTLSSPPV

COc1cc2sc(Nc3ccccc3)c(C#N)c2cc1OC
Activity [1]: 77%

N#Cc1c(Nc2ccc(C(F)(F)F)cc2)sc2ccccc12
Activity [1]: 24% | Activity [2]: 65%

COc1ccc(Nc2sc3ccccc3c2C#N)cc1
Activity [1]: 57%

COc1cccc(Nc2sc3ccccc3c2C#N)c1
Activity [1]: 81%

N#Cc1c(Nc2ccc([N+](=O)[O-])cc2)sc2ccccc12
Activity [1]: 8% | Activity [2]: 37%

N#Cc1c(Nc2ccc(F)cc2)sc2ccccc12
Activity [1]: 25% | Activity [2]: 58%

N#Cc1c(Nc2cccc(O)c2)sc2ccccc12
Activity [1]: 0% | Activity [2]: 60%

N#Cc1c(Nc2ccccc2O)sc2ccccc12
Activity [1]: 19% | Activity [2]: 68%

COc1c2c(cc3c(C#N)c(Nc4ccccc4)sc13)OCO2
Activity [1]: 81%

COc1ccc(Nc2sc3c(OC)cc(OC)cc3c2C#N)cc1
Activity [1]: 63%

N#Cc1c(Nc2ccccc2)sc2cc3c(cc12)OCO3
Activity [1]: 75%

N#Cc1c(Nc2ccccc2)sc2cc3ccccc3cc12
Activity [1]: 50%

N#Cc1c(Nc2ccc(N)cc2)sc2ccccc12
Activity [1]: 1% | Activity [2]: 51%

N#Cc1c(Nc2ccc(O)cc2)sc2ccccc12
Activity [1]: 25% | Activity [2]: 2% | inhibition [3]: Dose-Dependent Effect | inhibition [4]: inactive | Activity [5]: Dose-Dependent Effect | inhibition (INH) [6]: 80% | inhibition [7]: inactive | Activity [8]: Non-Toxic | Activity [9]: 1.58% | Activity [10]: Active | Activity [11]: Active | Activity [12]: Active | Activity [13]: Active | Activity [14]: inactive | Activity [15]: Active | Activity [16]: Active | Activity [17]: Active | Activity [18]: Active | Activity [19]: Active | Activity [20]: Active | remaining at 2 h [21]: 90.4% | remaining at 2 h [22]: 89% | remaining at 2 h [23]: 89.1% | half-life [24]: 1.87 h | Kdiss [25]: 0.000103 s⁻¹ | CLH [26]: 0.74 L/h | remaining at 24 h, up to 0.5 µM [27]: 78.3% | Cmax [28]: 442 ng/mL | Tmax [29]: 0.5 h | Vz [30]: 107.16 L/kg | CL/F [31]: 205 mL/min/kg | half-life [32]: 6 h | k el at 48 h [33]: 3.47e-05 s⁻¹ | Activity [34]: Active | Activity [35]: Active | inhibition [36]: Active

CC(=O)N(c1ccc(O)cc1)c1sc2ccccc2c1C#N
Activity [1]: 36% | Activity [2]: 59%

N#Cc1c(Nc2ccccc2)sc2ccccc12
Activity [1]: 81%

COc1cc2sc(Nc3cccc(O)c3)c(C#N)c2cc1OC
Activity [1]: 11% | Activity [2]: 67%

N#Cc1c(Nc2ccc(Cl)cc2)sc2ccccc12
Activity [1]: 45% | Activity [2]: 45%

COc1cc2sc(Nc3ccc(O)cc3)c(C#N)c2cc1OC
Activity [1]: 0% | Activity [2]: 73%

CCN(CC)CCNC(=O)c1c(C)[nH]c(/C=C2\C(=O)Nc3ccc(F)cc32)c1C [SUNITINIB]
Activity [37]: 43% | Activity [38]: Active | Activity [39]: Active
